Test results taken from the supplement of paper PMC12076712.

Columns and labels:
[1] = target: RAF1 (UniProt P04049); assay: pIC50, kinobeads binding competition
In short: (§1)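 Live Jurkat cells were treated with nine compound concentrations (top 30 μM, 1:4 steps) or DMSO for 60 min at 37 °C before lysis. Alternatively, Jurkat lysate or a 1:1:1:1 HEK293/K-562/HepG2/placenta lysate mix was incubated with nine concentrations (top 30 μM, 1:5 steps) for 60 min at 4 °C. Kinobeads-bound proteins were digested and quantified by TMT10 LC-MS/MS. pIC50 came from logistic dose-response fits (R drc package) of fold changes versus DMSO, in biological duplicates.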

[2] = target: T1, UHMK1 (UniProt Q8TAS1); assay: pIC50, kinobeads binding competition; settings: cell material: Jurkat lysate
T1 sequence (whole entry): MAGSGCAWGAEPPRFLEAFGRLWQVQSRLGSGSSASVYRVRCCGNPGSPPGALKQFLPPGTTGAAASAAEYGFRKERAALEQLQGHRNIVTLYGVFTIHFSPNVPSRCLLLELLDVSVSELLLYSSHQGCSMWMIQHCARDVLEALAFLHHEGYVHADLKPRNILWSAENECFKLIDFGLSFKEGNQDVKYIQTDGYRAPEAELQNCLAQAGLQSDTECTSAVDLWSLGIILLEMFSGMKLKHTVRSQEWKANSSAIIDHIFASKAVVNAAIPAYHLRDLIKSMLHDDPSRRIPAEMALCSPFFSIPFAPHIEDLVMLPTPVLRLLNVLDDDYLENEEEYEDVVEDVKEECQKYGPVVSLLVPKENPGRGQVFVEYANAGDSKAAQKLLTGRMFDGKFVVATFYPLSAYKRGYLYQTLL
In short: as §1

[3] = target: UniProt Q6XUX3; assay: pIC50, kinobeads binding competition; settings: cell material: Lysate mix
Chain of UniProt Q6XUX3 (Q6XUX3 whole entry): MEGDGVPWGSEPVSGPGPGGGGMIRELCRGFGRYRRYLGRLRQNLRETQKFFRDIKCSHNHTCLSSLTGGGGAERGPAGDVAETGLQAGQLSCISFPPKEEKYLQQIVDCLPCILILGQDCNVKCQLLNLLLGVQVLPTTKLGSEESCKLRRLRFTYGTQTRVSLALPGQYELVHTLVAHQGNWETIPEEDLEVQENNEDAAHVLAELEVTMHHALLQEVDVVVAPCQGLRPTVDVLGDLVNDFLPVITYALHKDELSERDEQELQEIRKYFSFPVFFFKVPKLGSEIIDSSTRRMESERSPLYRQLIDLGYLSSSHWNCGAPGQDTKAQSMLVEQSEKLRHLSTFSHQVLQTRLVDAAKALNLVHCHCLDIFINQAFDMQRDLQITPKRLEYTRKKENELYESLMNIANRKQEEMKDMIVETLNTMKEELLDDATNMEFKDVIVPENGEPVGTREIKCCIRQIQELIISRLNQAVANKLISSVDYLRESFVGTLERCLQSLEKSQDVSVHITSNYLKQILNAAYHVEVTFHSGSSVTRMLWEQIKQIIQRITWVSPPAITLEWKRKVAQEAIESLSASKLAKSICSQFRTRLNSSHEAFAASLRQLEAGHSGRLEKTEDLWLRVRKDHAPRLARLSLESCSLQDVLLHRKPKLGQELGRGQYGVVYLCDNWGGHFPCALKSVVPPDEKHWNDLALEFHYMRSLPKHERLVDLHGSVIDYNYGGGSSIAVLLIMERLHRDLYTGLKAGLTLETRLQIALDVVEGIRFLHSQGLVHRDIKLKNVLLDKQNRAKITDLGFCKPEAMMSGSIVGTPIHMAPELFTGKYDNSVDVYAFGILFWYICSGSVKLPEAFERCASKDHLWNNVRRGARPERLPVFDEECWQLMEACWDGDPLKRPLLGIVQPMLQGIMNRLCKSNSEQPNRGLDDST
In short: as §1

[4] = target: T2, TXK (UniProt P42681); assay: pIC50, kinobeads binding competition
T2 sequence (whole entry): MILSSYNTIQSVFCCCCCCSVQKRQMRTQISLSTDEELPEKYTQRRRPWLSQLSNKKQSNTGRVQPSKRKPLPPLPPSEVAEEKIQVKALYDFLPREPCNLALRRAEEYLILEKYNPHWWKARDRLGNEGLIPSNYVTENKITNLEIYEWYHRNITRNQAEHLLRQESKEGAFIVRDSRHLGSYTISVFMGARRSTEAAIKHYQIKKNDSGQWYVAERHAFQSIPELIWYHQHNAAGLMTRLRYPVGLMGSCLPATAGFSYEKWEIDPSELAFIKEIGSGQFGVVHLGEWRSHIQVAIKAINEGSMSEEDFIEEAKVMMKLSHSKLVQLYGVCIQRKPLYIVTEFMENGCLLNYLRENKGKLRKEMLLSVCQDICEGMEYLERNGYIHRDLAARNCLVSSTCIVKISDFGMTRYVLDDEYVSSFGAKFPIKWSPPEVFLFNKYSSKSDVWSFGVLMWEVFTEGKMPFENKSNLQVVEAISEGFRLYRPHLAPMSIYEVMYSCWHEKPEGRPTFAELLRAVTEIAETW
In short: as §1

[5] = target: T3, ZAP70 (UniProt P43403); assay: pIC50, kinobeads binding competition
T3 sequence (whole entry): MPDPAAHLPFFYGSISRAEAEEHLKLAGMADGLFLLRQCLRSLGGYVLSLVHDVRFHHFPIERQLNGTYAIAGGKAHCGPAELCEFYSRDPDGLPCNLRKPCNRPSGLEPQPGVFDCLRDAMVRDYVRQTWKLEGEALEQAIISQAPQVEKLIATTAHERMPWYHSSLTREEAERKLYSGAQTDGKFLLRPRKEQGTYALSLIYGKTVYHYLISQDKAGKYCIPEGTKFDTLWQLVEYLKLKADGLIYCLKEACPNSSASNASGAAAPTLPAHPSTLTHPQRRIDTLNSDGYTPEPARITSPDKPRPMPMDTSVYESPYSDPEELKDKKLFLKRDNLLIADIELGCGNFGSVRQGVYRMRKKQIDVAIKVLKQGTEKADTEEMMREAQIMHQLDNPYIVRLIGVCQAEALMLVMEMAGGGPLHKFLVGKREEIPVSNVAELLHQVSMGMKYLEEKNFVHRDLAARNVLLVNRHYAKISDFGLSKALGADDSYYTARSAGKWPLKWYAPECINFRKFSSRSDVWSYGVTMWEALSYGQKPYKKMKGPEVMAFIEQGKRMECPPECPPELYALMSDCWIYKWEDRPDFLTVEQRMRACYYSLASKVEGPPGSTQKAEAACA
In short: as §1

[6] = target: T4, BRSK1 (UniProt Q8TDC3); assay: pIC50, kinobeads binding competition
T4 sequence (whole entry): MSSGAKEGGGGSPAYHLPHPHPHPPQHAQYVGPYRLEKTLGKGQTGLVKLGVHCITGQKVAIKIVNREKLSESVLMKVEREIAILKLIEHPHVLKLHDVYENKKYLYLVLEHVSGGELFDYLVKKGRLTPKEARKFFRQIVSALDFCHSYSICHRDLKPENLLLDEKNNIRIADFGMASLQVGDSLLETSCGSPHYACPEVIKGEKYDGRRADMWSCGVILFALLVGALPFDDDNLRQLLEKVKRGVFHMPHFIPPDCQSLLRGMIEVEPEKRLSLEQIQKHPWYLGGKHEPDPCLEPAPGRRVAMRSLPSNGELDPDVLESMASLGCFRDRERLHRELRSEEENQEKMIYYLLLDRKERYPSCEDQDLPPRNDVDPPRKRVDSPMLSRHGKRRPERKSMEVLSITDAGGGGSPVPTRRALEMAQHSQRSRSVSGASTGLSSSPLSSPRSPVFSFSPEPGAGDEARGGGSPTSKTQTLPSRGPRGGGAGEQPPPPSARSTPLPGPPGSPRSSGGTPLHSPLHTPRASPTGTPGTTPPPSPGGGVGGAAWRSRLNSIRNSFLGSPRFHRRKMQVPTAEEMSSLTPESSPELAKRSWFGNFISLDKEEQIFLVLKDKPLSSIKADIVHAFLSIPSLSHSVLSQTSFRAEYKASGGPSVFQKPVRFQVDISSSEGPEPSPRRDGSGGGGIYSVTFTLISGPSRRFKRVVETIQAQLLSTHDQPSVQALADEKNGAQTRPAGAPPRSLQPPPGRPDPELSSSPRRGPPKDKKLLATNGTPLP
In short: as §1

[7] = target: UniProt Q9NWV4; assay: pIC50, competition of probe 3 labelling in live cells; settings: cell material: Jurkat cells
Chain of UniProt Q9NWV4 (Q9NWV4 whole entry): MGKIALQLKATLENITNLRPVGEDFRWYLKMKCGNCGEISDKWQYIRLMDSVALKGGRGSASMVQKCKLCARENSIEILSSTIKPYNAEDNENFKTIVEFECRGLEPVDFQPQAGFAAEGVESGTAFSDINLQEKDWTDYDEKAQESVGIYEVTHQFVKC

Chain of RAF1 (P04049 whole entry): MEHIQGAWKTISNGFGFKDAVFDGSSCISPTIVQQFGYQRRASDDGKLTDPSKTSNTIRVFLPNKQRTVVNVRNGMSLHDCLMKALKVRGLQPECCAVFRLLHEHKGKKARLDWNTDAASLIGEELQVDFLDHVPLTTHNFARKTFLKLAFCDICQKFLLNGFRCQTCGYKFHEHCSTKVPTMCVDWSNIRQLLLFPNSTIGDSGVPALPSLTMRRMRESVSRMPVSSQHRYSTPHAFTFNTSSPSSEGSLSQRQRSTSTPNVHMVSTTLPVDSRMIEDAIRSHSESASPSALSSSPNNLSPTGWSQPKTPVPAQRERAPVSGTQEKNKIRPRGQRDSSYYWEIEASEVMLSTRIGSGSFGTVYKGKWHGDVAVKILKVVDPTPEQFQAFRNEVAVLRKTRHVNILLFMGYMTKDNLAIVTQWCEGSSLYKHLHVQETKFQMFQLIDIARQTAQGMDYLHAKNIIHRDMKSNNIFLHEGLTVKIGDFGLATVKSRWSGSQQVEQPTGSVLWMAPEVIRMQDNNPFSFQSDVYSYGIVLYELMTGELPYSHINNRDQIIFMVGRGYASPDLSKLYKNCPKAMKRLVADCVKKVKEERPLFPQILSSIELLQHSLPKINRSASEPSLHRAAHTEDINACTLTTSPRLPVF

| pIC50 ([1]; cell material: Jurkat lysate) | pIC50 [3] | pIC50 [7] | Compound | pIC50 ([1]; cell material: Jurkat cells) | pIC50 [2] | pIC50 ([4]; cell material: Jurkat cells) | pIC50 ([4]; cell material: Jurkat lysate) | pIC50 ([5]; cell material: Jurkat cells) | pIC50 ([5]; cell material: Jurkat lysate) | pIC50 ([6]; cell material: Jurkat cells) | pIC50 ([6]; cell material: Jurkat lysate) |
| --- | --- | --- | --- | --- | --- | --- | --- | --- | --- | --- | --- |
| < 4.52 | 5.77 |  | O=C(NCCNC(=O)c1cc(Nc2cc(C3CC3)[nH]n2)nc(N2CCN(Cc3ccc(S(=O)(=O)F)cc3)CC2)n1)OC1CC/C=C/CCC1 (stereo unspecified) | < 4.52 | < 4.52 | < 4.52 | < 4.52 | 6.09 | < 4.52 | 6.6 | < 4.52 |
|  |  | < 4.52 | CC#CC(=O)Nc1ccc2ncnc(Nc3cccc(Br)c3)c2c1 [EKI-785] |  |  |  |  |  |  |  |  |
|  |  | < 4.52 | CCc1cnn2c(NCc3ccc[n+]([O-])c3)cc(N3CCCC[C@H]3CCO)nc12 [dinaciclib] |  |  |  |  |  |  |  |  |
|  |  |  | C#CCNC(=O)c1cc(Nc2cc(C3CC3)[nH]n2)nc(N2CCN(Cc3ccc(S(=O)(=O)F)cc3)CC2)n1 | < 4.52 | < 4.52 | 5.4 | < 4.52 | 6.43 | < 4.52 | 6.05 | < 4.52 |
|  | 5 |  | C#CCNC(=O)c1cc(Nc2cc(C)[nH]n2)nc(N2CCN(Cc3ccc(S(=O)(=O)F)cc3)CC2)n1 |  |  |  |  |  |  |  |  |
